This note sets out measurements from US6528275B1, “Substrates and inhibitors of proteolytic enzymes” (Peptide Therapeutics Limited, priority 1996, dated 2003).

Non-standard residues stand in square brackets, D forms with d. Residues, ends and D or L forms follow the SMILES beside them. *: point of attachment. Tyr(3-NO2) = N[C@@H](Cc1ccc(O)c([N+](=O)[O-])c1)C(=O)O; Benzoyl(2-COOH) = O=C(O)c1ccccc1C(=O)*; 3Pal = N[C@@H](Cc1cccnc1)C(=O)O; Tic = O=C(O)[C@@H]1Cc2ccccc2CN1; Cha = N[C@@H](CC1CCCCC1)C(=O)O; hLeu = CC(C)CC[C@H](N)C(=O)O; Nle = CCCC[C@H](N)C(=O)O; 2Abz = Nc1ccccc1C(=O)O; Piv = CC(C)(C)C(=O)*; Bz = O=C(c1ccccc1)*; Ahx = NCCCCCC(=O)O

The target in one experiment is T1, Der pI (Dermatophagoides pteronyssinus, UniProt P08176).
T1 construct: tissue SmithKline-Beecham, U.K (crude mite extract); host or cells: crude house dust mite extract
T1 sequence (P08176 99-320): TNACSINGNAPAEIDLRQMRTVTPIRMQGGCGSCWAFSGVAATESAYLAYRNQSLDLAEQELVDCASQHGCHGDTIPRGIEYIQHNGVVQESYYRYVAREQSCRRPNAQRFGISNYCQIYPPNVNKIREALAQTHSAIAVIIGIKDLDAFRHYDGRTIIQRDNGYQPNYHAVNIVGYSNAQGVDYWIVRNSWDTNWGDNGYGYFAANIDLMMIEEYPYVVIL
As to the kind of experiment: Der pI substrate assay with FRET peptides (fluorescence, Km, kcat/Km). The settings on record: purified Der pI; peptides SEQ ID Nos. 1-76; read-out: Measured Km. In kind it is biochemical, house dust mite. Here is the method:
(§1) Using the general techniques described above, the following compounds were prepared and assayed as potential substrates against Der pI purified as described above.
(§2) Each mixture of 20 compounds in the libraries of the apparatus described herein was screened at a concentration of 1.0 μM per compound in an assay against the cysteinyl protease Der pI.
(§3) Plate assays were carried out in 96 well plate format, using 0.1 ug of Der pI per 100 μL assay volume in each well and using 20 μM of the substrate. All assays were performed in Assay Buffer (AB; 50 mM potassium phosphate, pH 8.25 containing 1 mM ethylenediaminetetraacetic acid (EDTA) and 1 mM dithiothreitol (DTT). The Der pI enzyme is pre-activated by addition of DTT and this in incubated at room temperature for 5 min. prior to initiation of the assay. As an example for the screening methodology, each well contains a 5 μL of a 20 μM solution of the test compound in DMSO, 10 μL of a 200 μM aqueous solution of the substrate, 2, and 85 μL of Der pI in AB is added to initiate the reaction. Enzyme activity is monitored by fluorescence using 320 nm for excitation and 420 nm for the emission wavelengths using a Labsystems Fluroskan Ascent machine. Kinetic measurements were carried out using a Hitachi F-4500 Fluorescence Spectrophotometer.
In the case of `CC(C)CC[C@H](NC(=O)[C@H](C)NC(=O)[C@H](Cc1cccnc1)NC(=O)c1ccccc1N)C(=O)N[C@@H](CO)C(=O)N[C@@H](Cc1ccc(O)c([N+](=O)[O-])c1)C(=O)N[C@@H](CC(=O)O)C(N)=O` [Abz-3pyr-Ala-hLeu-Ser-Tyr(NO2)-Asp-NH2] (H-[2Abz][3Pal]A[hLeu]S[Tyr(3-NO2)]D-NH2), the Km is more than 10 µM.
On the same count and under the same terms, then `CC(C)CC[C@H](NC(=O)[C@H](C)NC(=O)[C@H](CCCCN)NC(=O)c1ccccc1N)C(=O)N[C@@H](CO)C(=O)N[C@@H](Cc1ccc(O)c([N+](=O)[O-])c1)C(=O)N[C@@H](CC(=O)O)C(N)=O` [Abz-Lys-Ala-hLeu-Ser-Tyr(NO2)-Asp-NH2] (H-[2Abz]KA[hLeu]S[Tyr(3-NO2)]D-NH2), with more than 15 µM; and `CC(C)[C@H](NC(=O)c1ccccc1N)C(=O)N[C@@H](C)C(=O)N[C@@H](Cc1c[nH]cn1)C(=O)N[C@@H](CO)C(=O)N[C@@H](Cc1ccc(O)c([N+](=O)[O-])c1)C(=O)N[C@@H](CC(=O)O)C(N)=O` [Abz-Val-Ala-His-Ser-Tyr(NO2)-Asp-NH2] (H-[2Abz]VAHS[Tyr(3-NO2)]D-NH2), with more than 20 µM.

A further experiment deals with T1, Der pI. The description is as above. More on the design: key: NS-Not Substrate: Not hydrolysed by Der pI; NM-Substrate but not measured: Substrate for Der pI but not measured. In kind it is biochemical, house dust mite. Conditions: purified Der pI; peptides SEQ ID Nos. 77-85. Here is the method: as §1, §2, §3
For the compound Abz-Cmpi-Nle-Ser-Tyr(NO2)-Asp-NH2, the “substrate or not substrate for Der pI (symbols in Measured Km)” value (shortened to “substrate or not substrate for Der pI”) was “NS”.
In the case of Abz-Deg-Ala-Nle-Ser-Tyr(NO2)-Asp-NH2, the “substrate or not substrate for Der pI” value is “NS”.
Regarding “Abz-Val-(NMe)Ala-Nle-Ser-Tyr(NO2)-Asp-NH2”, the “substrate or not substrate for Der pI” value is listed as “NS”.
Take Abz-Val-Aib-Nle-Ser-Tyr(NO2)-Asp-NH2: the “substrate or not substrate for Der pI” value is listed as “NS”.
In the case of “Abz-Val-Ala-(NMe)Nle-Ser-Tyr(NO2)-Asp-NH2”, the “substrate or not substrate for Der pI” value is “NS”.
For Abz-Val-Ala-Aib-Ser-Tyr(NO2)-Asp-NH2, the “substrate or not substrate for Der pI” value is given as “NS”.
In the case of Abz-p.Aba-Nle-Ser-Tyr(NO2)-Asp-NH2, the “substrate or not substrate for Der pI” value is recorded as “NS”.
Take Bz-Val-Ala-Statine-Ser-eAha-NH2: the “substrate or not substrate for Der pI” value was “NS”.
For the compound nBu-D.Ser-D.Nle-D.Ala-D.Val-p.Aba-NH2, the “substrate or not substrate for Der pI” value is listed as “NS”.

For another experiment, the target named is T1, Der pI. Described as above. In kind it is biochemical, house dust mite. More on the design: key: NS indicates that the peptide was not hydrolysed by Der pI.; NM indicated that the peptide was a substrate for Der pI, but the Km was not measured.; NM^a indicates that the peptide was a substrate for Der pI, and its cleavage was followed by HPLC-MS showing hydrolysis to occur between-Nle-Ser-. Conditions: purified Der pI; peptides SEQ ID Nos. 1-76. Here is the method: as §1, §2, §3
With `CCCC[C@H](NC(=O)[C@H](C)NC(=O)[C@@H](NC(=O)c1ccccc1N)C(C)C)C(=O)N[C@@H](CO)C(=O)N[C@@H](Cc1ccc(O)c([N+](=O)[O-])c1)C(N)=O` [Abz-Val-Ala-Nle-Ser-Tyr(NO2)-NH2] (H-[2Abz]VA[Nle]S[Tyr(3-NO2)]-NH2), the “substrate or not substrate for Der pI” value is reported as “NM”.
As for `CCCC[C@H](NC(=O)[C@H](C)NC(=O)[C@@H](NC(=O)c1ccccc1N)C(C)C)C(=O)N[C@@H](CO)C(=O)N[C@@H](Cc1ccc(O)cc1)C(=O)N[C@@H](CC(=O)O)C(N)=O` [Abz-Val-Ala-Nle-Ser-Tyr-Asp-NH2] (H-[2Abz]VA[Nle]SYD-NH2), the “substrate or not substrate for Der pI” value is given as “NM”.
With `CCCC[C@H](NC(=O)[C@H](C)NC(=O)[C@@H](NC(=O)c1ccccc1N)C(C)C)C(=O)N[C@@H](CO)C(=O)NCCCCCC(=O)N[C@@H](CC(=O)O)C(N)=O` [Abz-Val-Ala-Nle-Ser-eAHA-Asp-NH2] (H-[2Abz]VA[Nle]S[Ahx]D-NH2), the “substrate or not substrate for Der pI” value was “NM”.
On to `CC(C)CC[C@H](NC(=O)[C@H](CC1CCCCC1)NC(=O)[C@@H](NC(=O)c1ccccc1N)C(C)C)C(=O)N[C@@H](CO)C(=O)N[C@@H](Cc1ccc(O)c([N+](=O)[O-])c1)C(=O)N[C@@H](CC(=O)O)C(N)=O` [Abz-Val-Cha-hLeu-Ser-Tyr(NO2)-Asp-NH2] (H-[2Abz]V[Cha][hLeu]S[Tyr(3-NO2)]D-NH2), for which the “substrate or not substrate for Der pI” value is “NS”.
The same measure, in the same setting: under `CC(C)CC[C@H](NC(=O)[C@@H](C)NC(=O)[C@@H](NC(=O)c1ccccc1N)C(C)C)C(=O)N[C@@H](CO)C(=O)N[C@@H](Cc1ccc(O)c([N+](=O)[O-])c1)C(=O)N[C@@H](CC(=O)O)C(N)=O` [Abz-Val-DAla-hLeu-Ser-Tyr(NO2)-Asp-NH2] (H-[2Abz]V[dA][hLeu]S[Tyr(3-NO2)]D-NH2) stands “NS”; under `CC(C)CC[C@H](NC(=O)[C@@H](CCCCN)NC(=O)[C@@H](NC(=O)c1ccccc1N)C(C)C)C(=O)N[C@@H](CO)C(=O)N[C@@H](Cc1ccc(O)c([N+](=O)[O-])c1)C(=O)N[C@@H](CC(=O)O)C(N)=O` [Abz-Val-DLys-hLeu-Ser-Tyr(NO2)-Asp-NH2] (H-[2Abz]V[dK][hLeu]S[Tyr(3-NO2)]D-NH2), “NS”; under `CC(C)CC[C@H](NC(=O)[C@@H]1Cc2ccccc2CN1C(=O)[C@@H](NC(=O)c1ccccc1N)C(C)C)C(=O)N[C@@H](CO)C(=O)N[C@@H](Cc1ccc(O)c([N+](=O)[O-])c1)C(=O)N[C@@H](CC(=O)O)C(N)=O` [Abz-Val-Tic-hLeu-Ser-Tyr(NO2)-Asp-NH2] (H-[2Abz]V[Tic][hLeu]S[Tyr(3-NO2)]D-NH2), “NS”.
As for `CCCC[C@H](NC(=O)[C@H](C)NC(=O)[C@@H](NC(C)=O)C(C)C)C(=O)N[C@@H](CO)C(=O)N[C@@H](Cc1ccc(O)c([N+](=O)[O-])c1)C(=O)N[C@@H](CC(=O)O)C(N)=O` [Ac-Val-Ala-Nle-Ser-Tyr(NO2)-Asp-NH2] (Ac-VA[Nle]S[Tyr(3-NO2)]D-NH2), the “substrate or not substrate for Der pI” value is “NS”.
On the same count and under the same terms, then `CCCC[C@H](NC(=O)[C@H](C)NC(=O)[C@@H](NC(C)=O)C(C)C)C(=O)N[C@@H](CO)C(=O)N[C@@H](Cc1ccc(O)c([N+](=O)[O-])c1)C(N)=O` [Ac-Val-Ala-Nle-Ser-Tyr(NO2)-NH2] (Ac-VA[Nle]S[Tyr(3-NO2)]-NH2), with “NS”; and `CCCC[C@H](NC(=O)[C@H](C)NC(=O)[C@@H](NC(=O)c1ccccc1C(=O)O)C(C)C)C(=O)N[C@@H](CO)C(=O)N[C@@H](Cc1ccc(O)c([N+](=O)[O-])c1)C(N)=O` [Bz(2-carboxy)-Val-Ala-Nle-Ser-Tyr(NO2)-NH2] ({Benzoyl(2-COOH)}-VA[Nle]S[Tyr(3-NO2)]-NH2), with “NM^a”.
`CCCC[C@H](NC(=O)[C@H](C)NC(=O)[C@@H](NC(=O)c1ccccc1)C(C)C)C(=O)N[C@@H](CO)C(=O)N[C@@H](Cc1ccc(O)c([N+](=O)[O-])c1)C(N)=O` [Bz-Val-Ala-Nle-Ser-Tyr(NO2)-NH2] (Bz-VA[Nle]S[Tyr(3-NO2)]-NH2): the “substrate or not substrate for Der pI” value is reported as “NM^a”.
Take `CCCC[C@H](NC(=O)[C@H](C)N)C(=O)N[C@@H](CO)C(=O)N[C@@H](Cc1ccc(O)c([N+](=O)[O-])c1)C(=O)N[C@@H](CC(=O)O)C(N)=O` [H-Ala-Nle-Ser-Tyr(NO2)-Asp-NH2] (H-A[Nle]S[Tyr(3-NO2)]D-NH2): the “substrate or not substrate for Der pI” value is on record as “NS”.
On to `CCCC[C@H](NC(=O)[C@H](C)NC(=O)[C@@H](N)C(C)C)C(=O)N[C@@H](CO)C(=O)N[C@@H](Cc1ccc(O)c([N+](=O)[O-])c1)C(N)=O` [H-Val-Ala-Nle-Ser-Tyr(NO2)-NH2] (H-VA[Nle]S[Tyr(3-NO2)]-NH2), for which the “substrate or not substrate for Der pI” value was “NS”.
For `CCCC[C@H](NC(=O)[C@H](C)NC(=O)[C@@H](N)C(C)C)C(=O)N[C@@H](CO)C(=O)N[C@@H](Cc1ccc(O)c([N+](=O)[O-])c1)C(=O)N[C@@H](CC(=O)O)C(N)=O` [H-Val-Ala-Nle-Ser-TyrNO2-Asp-NH2] (H-VA[Nle]S[Tyr(3-NO2)]D-NH2), the “substrate or not substrate for Der pI” value was “NS”.
Regarding `CCCC[C@H](NC(=O)[C@H](C)NC(=O)[C@@H](NC(=O)C(C)(C)C)C(C)C)C(=O)N[C@@H](CO)C(=O)N[C@@H](Cc1ccc(O)c([N+](=O)[O-])c1)C(N)=O` [Piv-Val-Ala-Nle-Ser-Tyr(NO2)-NH2] (Piv-VA[Nle]S[Tyr(3-NO2)]-NH2), the “substrate or not substrate for Der pI” value is recorded as “NM^a”.
For the compound “Abz-2.Naph-Val-Ala-Nle-Ser-Tyr(NO2)-Asp-NH2”, the “substrate or not substrate for Der pI” value is “NM”.
Regarding “Abz-3.Pyr-Val-Ala-Nle-Ser-Tyr(NO2)-Asp-NH2”, the “substrate or not substrate for Der pI” value is “NM”.
Regarding Chex-Val-Ala-Nle-Ser-Tyr(NO2)-NH2, the “substrate or not substrate for Der pI” value was “NM^a”.
As to n-Bu-Val-Ala-Nle-Ser-Tyr(NO2)-NH2, the “substrate or not substrate for Der pI” value is listed as “NM^a”.
